In US11149028B2, “Methods for treating melanoma using small molecules” (NOVA SOUTHEASTERN UNIVERSITY, priority 2016, dated 2021):
“Also recorded” adds a separate entry of the source.

What was measured:
[1] = system: A549 non-small cell lung cancer cell line; experiment: CellTiter-Glo viability assay, A549 cells; type: cell-based; conditions: individual compounds
Description: Mixture libraries were solubilized in 3% DMSO/H2O and added to polypropylene 384 well plates (Greiner cat #781280). 1,250 CHO-K1, A549, or M14 cells were plated in 384-well plates in 5 μL of serum-free media (F12 for CHO-K1 and A549, DMEM for M14). Test compounds and gefitinib (pharmacological assay control) were prepared as 10-point, 1:3 serial dilutions starting at 300 then added to the cells (5 μL per well) using the Biomek NX^P. Plates were incubated for 72 h at 37° C., 5% CO2 and 95% RH. After incubation, 5 μL of CellTiter-Glo® (Promega cat #: G7570) were added to each well, and incubated for 15 min at room temperature. Luminescence was recorded using a Biotek Synergy H4 multimode microplate reader. Viability was expressed as a percentage relative to wells containing media only (0%) and wells containing cells treated with 1% DMSO only (100%). Three parameters were calculated on a per-plate basis: (a) the signal-to-background ratio (SB); (b) the coefficient for variation [CV; CV=(standard deviation/mean)×100)] for all compound test wells; and (c) the Z′-factor (18). The IC50 value of the pharmacological control (gefitinib, LC Laboratories #G-4408) was also calculated to ascertain the assay robustness. Time course viability assay was performed as described for library screening with luminescence measurements performed at 4, 24, 48, and 72 h.

[2] = system: SKMEL-28 melanoma cell line; experiment: Hexosaminidase viability assay, SKMEL-28; type: cell-based; conditions: Homo sapiens, SK-MEL-28; for IC50: V600EBRAF mutation
Description: Hexosaminidase assay was used to study the effects of 2155-14 and 2155-18 on cell viability or cell proliferation of both B16/F-10 and SKMEL-28 cells
(Landegren, U. Measurement of cell numbers by means of the endogenous enzyme hexosaminidase. Applications to detection of lymphokines and cell surface antigens. J Immunol Methods 1984, 67, 379-388). In brief, cells were plated in 96 well plates, grown overnight and treated the next day with increasing concentrations of compounds (0-50 μM) for 48 h. After 48 h of treatment, media was discarded and cells were washed with PBS to remove residual media from wells. Hexosaminidase substrate (75 μL) (Sigma Aldrich; cat #N9376) was added to each well, incubated at 37° C. for 30 min followed by addition of 112.5 μL of developer into each well. Final absorbance was measured at λ=405 nm. Cell growth was calculated as percent viability=[([…])×100], where A and B were the absorbance of treated and control cells, respectively.

HEPG2 cell line = experiment: Viability of HEPG2 liver cancer cells; type: cell-based
HDAC1 = HDAC1 (Homo sapiens, UniProt Q13547); experiment: HDAC inhibition testing; type: biochemical; conditions: up to 100 μM
Sequence of HDAC1 (Q13547 whole entry, species assumed): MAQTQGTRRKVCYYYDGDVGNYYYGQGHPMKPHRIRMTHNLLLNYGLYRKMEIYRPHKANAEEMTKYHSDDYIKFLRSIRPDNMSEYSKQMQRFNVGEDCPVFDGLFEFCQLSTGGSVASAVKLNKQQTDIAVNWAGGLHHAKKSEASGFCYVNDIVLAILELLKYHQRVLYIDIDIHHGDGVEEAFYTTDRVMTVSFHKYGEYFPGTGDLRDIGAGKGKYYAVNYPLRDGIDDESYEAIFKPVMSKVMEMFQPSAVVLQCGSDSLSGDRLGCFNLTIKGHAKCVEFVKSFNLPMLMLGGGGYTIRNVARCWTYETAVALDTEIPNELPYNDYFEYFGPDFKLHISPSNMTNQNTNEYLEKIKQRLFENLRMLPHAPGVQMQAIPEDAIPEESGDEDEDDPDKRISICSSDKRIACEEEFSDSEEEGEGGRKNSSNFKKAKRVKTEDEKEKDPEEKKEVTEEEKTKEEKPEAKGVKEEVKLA

HDAC2 = HDAC2 (Homo sapiens, UniProt Q92769); experiment: HDAC inhibition testing; type: biochemical; conditions: up to 100 μM
Sequence of HDAC2 (Q92769 whole entry): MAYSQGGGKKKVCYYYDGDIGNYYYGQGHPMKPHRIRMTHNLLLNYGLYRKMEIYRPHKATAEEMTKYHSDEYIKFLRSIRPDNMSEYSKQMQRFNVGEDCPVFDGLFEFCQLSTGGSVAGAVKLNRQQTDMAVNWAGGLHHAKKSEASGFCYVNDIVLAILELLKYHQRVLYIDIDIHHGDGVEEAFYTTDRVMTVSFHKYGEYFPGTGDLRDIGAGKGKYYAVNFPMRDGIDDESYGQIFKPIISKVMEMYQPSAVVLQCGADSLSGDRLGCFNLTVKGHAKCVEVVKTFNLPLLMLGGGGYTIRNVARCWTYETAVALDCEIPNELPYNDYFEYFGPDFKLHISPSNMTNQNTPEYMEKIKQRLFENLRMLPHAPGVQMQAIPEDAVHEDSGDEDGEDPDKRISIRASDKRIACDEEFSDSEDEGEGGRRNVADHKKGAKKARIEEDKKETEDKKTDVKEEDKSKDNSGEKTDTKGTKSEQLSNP

WM266-4 cells [3] = experiment: CellTiter-Glo cell viability assay, WM266-4 (including rescue assays); type: cell-based, human; conditions: for viability of WM266-4 cells: 24 h after addition
[4] = system: mouse embryonic fibroblasts (MEF); experiment: Viability of mouse embryonic fibroblasts; type: cell-based
Description: Cells were plated in 384-well plates in 8 μL of media. Test compounds and dabrafenib (pharmacological assay control) were prepared as 10-point, 1:3 serial dilutions starting at 300 μM, then added to the cells (4 μL per well) using the Biomek Plates were incubated for 72 h at 37° C., 5% CO2 and 95% relative humidity. After incubation, 4 μL of CellTiter-Glo® (Promega cat #: G7570) were added to each well, and incubated for 15 min at room temperature. Luminescence was recorded using a Biotek Synergy H4 multimode microplate reader. Viability was expressed as a percentage relative to wells containing media only (0%) and wells containing cells treated with DMSO only (100%). Three parameters were calculated on a per-plate basis: (a) the signal-to-background ratio (SB); (b) the coefficient for variation [CV; CV=(standard deviation/mean)×100)] for all compound test wells; and (c) the Z′-factor (18). The IC50 value of the pharmacological control (dabrafenib, LC Laboratories #G-4408) was also calculated to ascertain the assay robustness. In case of viability rescue assays, cells were pre-treated with caspase, calpain, and autophagy inhibitors for 1-3 h before addition of test compounds. Time course viability assay was done with luminescence measurements performed at 4, 24, 48, and 72 h.

[5] = system: caspase 3/7 in WM266-4 cells; experiment: Caspase 3/7 activity assay; type: cell-based, human; conditions: 0 and 4 h
Description: (§1) WM266-4 and M14 cells were plated in 384-well plates in 5 μL of complete media (EMEM and RPMI-1640, respectively). 5 μL of 200 μM 2155-14 and 2155-18 were added to the cells. Plates were incubated at 37° C., 5% CO2 and 95% relative humidity for various lengths of time. After incubation, 5 μL of caspase 3/7, caspase 8, and caspase 9 Glo® reagent (Promega cat #: G7570) were added to each well, and incubated for 15 min at room temperature. Luminescence was recorded using a Biotek Synergy H4 multimode microplate reader.

[6] = system: caspase 8 in WM266-4 cells; experiment: Caspase 8 activity assay; type: cell-based, human; conditions: 0 and 4 h
Description: as §1

[7] = system: caspase 9 in WM266-4 cells; experiment: Caspase 9 activity assay; type: cell-based, human; conditions: 0 and 4 h
Description: as §1

WM266-4 cells [8] = experiment: Cell staining for autophagy (autophagosome dye); type: cell-based, human; conditions: for autophagy staining: 100 μM; for autophagy staining / morphology of unstained cells: 4 and 24 h; for morphology of unstained cells: bright field
Description: WM266-4 cells were seeded at 10,000 cells/well in 0.1 mL of E-MEM medium supplemented with 10% FBS and 1% penicillin/streptomycin in 96 well plates (Greiner Bio-One CellStar cat #655180) and allowed to adhere overnight. After overnight incubation 100 μM 2155-14, 2155-18, 50 nM hnRNPH2 siRNA or 25 μM 2476-67.2 were added and incubated for various length of time. Cells were rinsed with warm PBS and stained with CYTO-ID® 1.0 Autophagy reagent (Enzo ENZ-51031-0050) and counterstained with DAPI. Cells were imaged using Cytation 5 imager (Biotek Inc, Winooski, Vt.) using GFP and DAPI filter sets. For % autophagic cells calculations cell counts were conducted using DAPI-stained nuclei and Object Sum Area value was obtained from at least 1,000 cells/well using DAPI channels. To obtain number of cells undergoing autophagy the cell count was conducted using GFP channel. Both GFP and DAPI cell counts were conducted using optimized algorithm in automatic mode. 8 replicate wells were used. % autophagic cells was calculated using Equation 1:% autophagic cells=100%*(number of cells, GFP channenumber of cells, DAPI channel)
To calculate staining intensity, the Object Sum Area value from GFP channel was obtained and divided by number of cells using DAPI channel. Both GFP and DAPI cell counts were conducted using optimized algorithm in automatic mode. 3 replicate wells were used.

IC50 [2] | HDAC1 inhibition (HDAC1) | HDAC2 inhibition (HDAC2) | IC50 ([1]; Homo sapiens, A549) | SMILES | activity towards A549 cells [1] | selectivity against HEPG2 cell line (HEPG2 cell line) | viability of WM266-4 cells (WM266-4 cells [3]) | toxicity to mouse embryonic fibroblasts [4] | caspase 3/7 activity vs untreated control [5] | caspase 8 signal vs untreated control [6] | caspase 9 signal vs untreated control [7] | autophagy staining (WM266-4 cells [8]) | morphology of unstained cells (WM266-4 cells [8]) | cytotoxicity at 10 µM ([2]; starting at 10 μM, read-out: inhibition of SKMEL-28 viability) | inhibition of WM266-4 viability (WM266-4 cells [3]; 100 μM, 72 h) | viability after pre-incubation with caspase inhibitors (WM266-4 cells [3]; 24 h, 10 μM Z-IETD-FMK and Z-VAD-FMK) | viability of WM266-4 cells with caspase inhibitor pre-treatment (WM266-4 cells [3]; 48 h of exposure) | IC50 (WM266-4 cells [3]; 72 h) | IC50 (WM266-4 cells [3]; 72 h, listed as 2529-1) | cells undergoing autophagy (WM266-4 cells [8]; quantitation of representative image, FIG. 18D)
890 ± 70 nM | lack of HDAC inhibition | lack of HDAC inhibition |  | O=C1NC[C@H](Cc2ccccc2)N(C[C@@H]2CCCN2C[C@H](Cc2ccccc2)N2C[C@H](Cc3ccc(O)cc3)N(CCC34CC5CC(CC(C5)C3)C4)C(=O)C2=O)C1=O [Compound 2155-18, (S)-4-(2-(adamantan-1yl)ethyl)-1-((S)-1-((S)-2-(((S)-6-benzyl-2,3-dioxopiperazin-1-yl)methyl)pyrrolidin-1-yl)-3-phenylpropan-2-yl)-5-(4-hydroxybenzyl)piperazine-2,3-dione] | improved activity | selective | impaired | not toxic | not statistically different from untreated control | significantly different from untreated control cells | significantly different from untreated control cells | did not stain positive for autophagy | exhibited traits of apoptosis; also recorded: less pronounced than 2155-14 |  |  |  |  |  |  | 
563 ± 40 nM | lack of HDAC inhibition | lack of HDAC inhibition | > 100000 nM | O=C1NC[C@H](Cc2ccccc2)N(C[C@@H]2CCCN2C[C@@H](CC2CCCCC2)N2C[C@H](Cc3ccc(O)cc3)N(CCc3ccccc3)C(=O)C2=O)C1=O [Compound 2155-14, (S)-1((R)-1((S)-2-(((S)-6-benzyl-2,3-dioxopiperazin-1-yl)methyl)pyrrolidin-1-yl)-3-cyclohexylpropan-2-yl)-5-(4-hydroxybenzyl)-4-phenethylpiperazine-2,3-dione] |  | selective | impaired | not toxic | not statistically different from untreated control | significantly different from untreated control cells | significantly different from untreated control cells | stained positive for autophagy as early as 4 h after compound addition; also recorded: At 24 h the intensity of autophagy staining increased; also recorded: stain positive for autophagy at 4 h | exhibited traits of apoptosis; also recorded: extensive cell death | ~100% | completely inhibited viability | almost completely restored | ~25% | 4000 ± 500 nM | 1500 ± 200 nM | 57%
